According to US11229709B2, “Dendrimer drug conjugates for sustained intra-articular delivery” (Massachusetts Institute of Technology, priority 2017, dated 2022):

Legend:
[1] = Joint residence time after intra-articular injection (IVIS imaging); conditions: rats, calculated from half-life, dose injected and drug EC50
Description: Prior to injection, knee joints were shaved and disinfected with iodine scrub and 70% ethanol, 3 times. Rats were serially imaged at timepoints using a IVIS Spectrum (Perkin-Elmer) instrument at 640/680 nm. Images were quantified by drawing an anatomical Region of Interest (ROI) around the knee joint, applying to each image, and measuring radiant efficiency within the ROI on Living Image (Perkin-Elmer) software. Data for each treatment group was fit to a single exponential decay curve (FIG. 4C) with a terminal plateau assigned to all groups based on imaging an untreated rat.

[2] = tested on: medial tibia cartilage degeneration; assay: Rat surgical osteoarthritis model ACLT+MMx, histological analysis; assay type: in vivo; design: mean area of degenerated medial tibial cartilage, % of total cartilage area: dose or concentration left out as unconfirmed; conditions: single intra-articular injection 48 hours after surgery
Description: (§1) Skeletally mature male Sprague-Dawley rats of 12 weeks of age (350-400 g, Taconic) were injured by the Anterior Cruciate Ligament Transection and Partial Medial Meniscectomy (ACLT+pMMx) method to induce arthritis. […] Treatments were given by intra-articular injection into the affected joint 48 hours after surgery, using a joint concentration of 6 M IGF-1. Rats were sacrificed for analysis 30 days after surgery.
Histological processing and analysis was performed according to the guidelines for rat surgical models by the Osteoarthritis Research Society International (OARSI) histopathology initiative (Gerwin et al, Osteoarthritis and Cartilage, 2010, Schmitz et al, Osteoarthritis and Cartilage 2010). Six 250 μm frontal step sections were taken from the central ˜1.5 mm of the joint and stained with Toluidine Blue/Fast Green. Aggrecan in healthy cartilage is stained blue (dark) and collagens in bone or degenerated cartilage are stained green (light). The section with the most severe medial tibia cartilage lesion was identified by a blinded investigator and used for all further analysis. Sections were scored quantitatively for degeneration in a blinded manner by histomorphometry techniques based on OARSI histopathology initiative guidelines.
Degenerated tissue was defined as >50% cell death and loss of toluidine blue staining. […]

osteophytes = assay: Rat surgical osteoarthritis model ACLT+MMx, micro-computed tomography osteophyte volume; assay type: in vivo; conditions: single injection after surgery
Description: as §1
After fixation and before decalcification, excised rat joints were attached to the bore of a microCT scanner (GE eXplore CT 120) and scanned at 0.03° angles for a total of 1200 scans over a time period of 1.5 hours. Scans used an 80 kV x-ray potential, 32 mA current, and a 100 ms integration time. Image data sets were reconstructed into regions of interest encompassing single joints using Microview software (Parallax Innovations).
3D positioning data were used to quantify total volume of osteophytes (bone spurs) on each joint. 3D DICOM analysis software (Osirix MD) was used by a blinded investigator to re-section the images into a uniform frontal plane, perpendicular to an axis tangential to the femoral condyles and tibial plateau in the sagittal plane and an axis bisecting the femoral condyles and tibial plateau in the transverse plane. […] The sections were then reconstructed to 3D, and total osteophyte ROI volume was calculated for each rat. […]

insulin like growth factor 1 [IGF-1]
time at relevant (therapeutic) doses in the joint [1]: 3 days | mean width of cartilage degeneration at the cartilage surface (0% tissue depth) ([2]; 30 days after surgery): 1390 μm | mean area of degenerated medial tibial cartilage, % of total cartilage area ([2]; joint concentration of IGF-1, 30 days after surgery): 19.7% | reduction of osteophyte burden versus untreated (osteophytes): ~50% | mean total osteophyte volume (burden) (osteophytes; 30 days after surgery, microCT): 0.60 mm^3
